Results on 17 compounds are retold here after patent publication US4816471A, “Substituted heterocyclic benzamides, methods of preparing them and their application as anti-emetics” (Societe d'Etudes Scientifiques et Industrielles de …, priority 1978, dated 1989).

Data set [1] relates to anti-emetic power relative to apomorphine in dogs. As to the kind of experiment: anti-emetic power relative to apomorphine in dogs by the method of Chen and Ensor (subcutaneous administration). The conditions noted are these: Canis lupus familiaris, sc, Table 1, s.c. 30 minutes before apomorphine 100 ug/kg s.c. Format: in vivo. As to the method: (§1) The pharmacodynamic tests on the compounds of this invention, and particularly a study of their anti-emetic power have shown strong activity on the nervous system as apomorphine antagonists. […] In accordance with the above-mentioned procedures, the compounds of the invention were administered subcutaneously 30 minutes before the administration of apomorphine, which was administered subcutaneously in a dose of 100 ug/kg.

The nature of data set [2]: acute toxicity in the mouse. To be noted: in vivo. An excerpt: The acute toxicity of the compounds of the invention has been studied in the mouse. The LD50 's are set out in the following Table 3. […] This characteristic is highly desirable because the possibility of toxic effects due to the administration of therapeutic doses is thereby minimized.
Data set [3] has as its system biting sterotypes induced by apomorphine. As to the kind of experiment: potentiation of biting sterotypes induced by apomorphine in mice, Pedeson's method. To be noted: Table 6, apomorphine 10 mg/kg, interperitoneal; for ED50: Mus musculus, ip. It counts as in vivo. On the procedure:
The compounds were also tested for potentiation of biting sterotypes induced by apomorphine (10 (mg/kg) in mice, under interperitoneal administration in accordance with Pedeson's method in Brit J. Pharmacol. 1968, 34 (1), 219-220 with the following results: […]

The test system of data set [4] is chewing stereotypes induced by apomorphine. As to the kind of experiment: antagonism to chewing stereotypes induced by apomorphine in rats, method of Janssen. The conditions noted are these: Table 4, apomorphine 1.25 mg/kg; for ED50: Rattus norvegicus, sc; for % antagonism to chewing stereotypes induced by apomorphine: s.c., at 200. It counts as in vivo. On the procedure: The neurological activity of the compounds of the invention was compared to the activity of prior art compounds in U.S. Pat. No. 4,172,143 and with a standard in this field, Sulpiride, N-[(1-ethylpyrrolidinyl-2)methyl]-2-methoxy-5 sulphamoyl benzamide. The compounds were tested for antagonism to chewing stereotypes induced by apomorphine (1.25 mg/kg in rats, according to the method of Janssen in Arzn. Forsch. 1960-10, 1003-5, under subcutaneous administration and the results were as follows: […]

The subject of data set [5] is chewing stereotypes induced by dexamphetamine. As to the kind of experiment: antagonism to chewing stereotypes induced by dexamphetamine in rats, Janssen's method. To be noted: Table 5, dexamphetamine 10 mg/kg; for ED50: Rattus norvegicus, sc; for % antagonism to chewing stereotypes induced by dexamphetamine: s.c., at 100 mg/kg. Format: in vivo. On the procedure:
The compounds were also tested for antagonism to chewing stereotypes induced by dexamphetamine (10 mg/kg) in rats, by Janssen's method in Arzn. Forsch. 1961, 11, 932-938 under subcutaneous administration with the following results: […]

Data set [6] concerns anti-emetic power relative to apomorphine in dogs. As to the kind of experiment: anti-emetic ED50 under oral administration (procedure of Example 29). Format: in vivo. To be noted: Canis lupus familiaris, Table 2. On the procedure:
as §1
Compounds SLC-036, 77205 and 77149 are disclosed in U.S. Pat. No. 4,172,143 for comparison purposes, as Examples 10, 33 and 37 therein. The results for those compounds are reported in Table IX of the '143 Patent and are believed to represent results from oral administration.
Pharmacological tests were carried out under oral administration to determine anti-emetic ED50 in accordance with the procedure of Example 29 with the following results: […]

The test system is the same in data set [7]. The conditions noted are these: cited from earlier work; for ED50 (Prior Art Compounds, Results Reported in U.S. Pat No. 4,172,143): Table 1, method of administration believed oral; for ED50 (oral): Table 2, prior art compounds, same values as reported in U.S. Pat. No. 4,172,143.
Data set [8] has as its system stereotypes induced by apomorphine. Briefly: potentiation of stereotypes induced by apomorphine in rats. Format: in vivo. To be noted: Table 7, apomorphine 0.25 mg/kg, intraperitoneal, at 8 mg/kg. On the procedure: The compound of Example 2 was tested against sulpiride for potentiation of stereotypes induced by apomorphine (0.25 mg/kg) in rats under intraperitoneal administration with the following results: […]

Each structure is given as a SMILES string. Counter-ions that a name gives are not always drawn.

Turning to `CC[S+]([O-])c1cc(C(=O)NCC2CCCN2CC2CC2)c(OC)cc1N` (stereo not drawn) [Example 1, N-(1-cyclopropylmethyl 2-pyrrolidinylmethyl)-2-methoxy 4-amino 5-ethylsulphinyl benzamide], the median effective dose (ED50) in data set [1] was 0.0007 mg/kg.

As to `CNS(=O)(=O)c1cc(C(=O)NCC2CCCN2CC2CC2)c(OC)cc1N` (stereo not drawn) [Example 3, N-(1-cyclopropylmethyl 2-pyrrolidinylmethyl)-2-methoxy 4-amino 5-methylsulphamoyl benzamide], the ED50 in data set [1] amounted to 0.0004 mg/kg.

`CNS(=O)(=O)c1cc(OC)c(OC)c(C(=O)NCC2CCCN2CC2CC2)c1` (stereo not drawn) [Example 5, N-(1-cyclopropylmethyl 2-pyrrolidinylmethyl)-2,3-dimethoxy 5-methylsulphamoyl benzamide]: the ED50 in data set [1] amounted to 0.0005 mg/kg.

Take `COc1cc(S(N)(=O)=O)cc(C(=O)NCC2CCCN2CC2=CCCCC2)c1OC` (stereo not drawn) [Example 6, N-(1-cyclohexenyl-methyl-2-pyrrolidylmethyl)-2,3-dimethoxy 5-sulphamoyl benzamide]: the mortality in data set [2] (ip, I.P., at 240 mg/kg, read-out: 60% at 240 mg/kg (acute toxicity)) was determined as 60%. Also, the 50% effective dose (ED50) is 0.0028 mg/kg in data set [1], 2.6 mg/kg in data set [3] and 40 mg/kg in data set [4].

As to `CCS(=O)(=O)c1cc(C(=O)NCC2CCCN2CC2CCCCC2)c(OC)cc1N` (stereo not drawn) [Example 8, N-(1-cyclohexylmethyl-2-pyrrolidinyl-methyl)-2-methoxy-4-amino-5-ethylsulphonyl-benzamide], the median lethal dose (LD50) in data set [2] (I.V. (intravenous)) is 37 to 40.8 mg/kg; in data set [2] (P.O. (oral)) it was 348 to 380 mg/kg; in data set [2] (ip, I.P. (intraperitoneal)), 133 to 145 mg/kg; in data set [2] (sc, S.C. (subcutaneous)), 336 to 342 mg/kg. For the same compound, the ED50 in data set [5] was 15.4 mg/kg; in data set [1] it was 0.002 mg/kg; in data set [4], 33 mg/kg.

Turning to `CCS(=O)(=O)c1cc(C(=O)NCC2CCCN2CC2=CCCC2)c(OC)cc1N` (stereo not drawn) [Example 10, N-(1-cyclopentenylmethyl 2-pyrrolidinylmethyl)-2-methoxy 4-amino 5-ethylsulphonyl benzamide], the LD50 in data set [2] (I.V. (intravenous)) was in the range of 41.8 to 42 mg/kg; in data set [2] (P.O. (oral)), 980 to 990 mg/kg; in data set [2] (ip, I.P. (intraperitoneal)), 204 to 212 mg/kg; in data set [2] (sc, S.C. (subcutaneous)), 330 to 360 mg/kg. In addition, the figures for the ED50 in data set [5] and in data set [1] were 14 mg/kg and 0.0013 mg/kg, respectively.

Take `CCS(=O)(=O)c1cc(C(=O)NCC2CCCN2CC2=CCCCC2)c(OC)cc1N` (stereo not drawn) [Example 11, N-[1-(1-cyclohexenylmethyl)-2-pyrrolidinylmethyl]-2-methoxy 4-amino 5-ethylsulphonyl benzamide, phosphate]: the LD50 lay in the range of 29.5 to 31.8 mg/kg in data set [2] (I.V. (intravenous)); 510 to 555 mg/kg in data set [2] (P.O. (oral)); 180 to 181 mg/kg in data set [2] (ip, I.P. (intraperitoneal)); 343 to 360 mg/kg in data set [2] (sc, S.C. (subcutaneous)). Moreover, the ED50 turned out to be 5.4 mg/kg in data set [5], 0.00057 mg/kg in data set [1] and 13.7 mg/kg in data set [4].

In the case of `CNS(=O)(=O)c1cc(OC)c(OC)c(C(=O)NCC2CCCN2CC2=CCCCC2)c1` (stereo not drawn) [Example 12, N-(1-cyclohexenylmethyl 2-pyrrolidinylmethyl) 2,3-dimethoxy 5-methylsulphamoyl benzamide], the 50% lethal dose (LD50) in data set [2] (I.V. (intravenous)) lay in the range of 57.8 to 62 mg/kg; in data set [2] (P.O. (oral)), 540 to 560 mg/kg; in data set [2] (ip, I.P. (intraperitoneal)), 198 to 200 mg/kg; in data set [2] (sc, S.C. (subcutaneous)) it was 297 to 319 mg/kg. Also, the median effective dose (ED50) in data set [5] was determined as 1.5 mg/kg; in data set [1], 0.00115 mg/kg; in data set [3], 0.33 mg/kg; in data set [4] it was 4 mg/kg.

In the case of `CNS(=O)(=O)c1ccc(OC)c(C(=O)NCC2CCCN2CC2=CCCCCC2)c1` (stereo not drawn) [Example 13, N-(1-cycloheptenylmethyl 2-pyrrolidinylmethyl) 2-methoxy 5-methylsulphamoylbenzamide], the 50% lethal dose (LD50) in data set [2] (I.V. (intravenous)) lay within 45.5 to 48 mg/kg; in data set [2] (P.O. (oral)), 312 to 330 mg/kg; in data set [2] (ip, I.P. (intraperitoneal)) it was 128 to 140 mg/kg; in data set [2] (sc, S.C. (subcutaneous)), 322 to 336 mg/kg. The ED50 stood at 0.54 mg/kg in data set [5], 0.0005 mg/kg in data set [1] and 1.5 mg/kg in data set [4].

In the case of `COc1ccc(S(N)(=O)=O)cc1C(=O)NCC1CCCN1CC1=CCCCC1` (stereo not drawn) [Example 14, N-[1(1-cyclohexenylmethyl) 2-pyrrolidinylmethyl]2-methoxy 5-sulphamoyl benzamide], the LD50 in data set [2] (I.V. (intravenous)) is 82.5 to 85.5 mg/kg; in data set [2] (P.O. (oral)), 525 to 542 mg/kg; in data set [2] (ip, I.P. (intraperitoneal)), 294 to 317 mg/kg; in data set [2] (sc, S.C. (subcutaneous)), 630 to 640 mg/kg. In addition, the ED50 in data set [5] worked out at 10 mg/kg; in data set [1], 0.00085 mg/kg; in data set [6], 0.0012 mg/kg; in data set [4] it was 16.4 mg/kg.

As to `CNS(=O)(=O)c1ccc(OC)c(C(=O)NCC2CCCN2CC2=CCCCC2)c1` (stereo not drawn) [Example 15, N-(1-cyclohexenylmethyl 2-pyrrolidinylmethyl) 2-methoxy 5-methylsulphamoyl benzamide], the median lethal dose (LD50) lay in the range of 44.2 to 46.5 mg/kg in data set [2] (I.V. (intravenous)); 540 to 558 mg/kg in data set [2] (P.O. (oral)); 204 to 208 mg/kg in data set [2] (ip, I.P. (intraperitoneal)); 462 to 494 mg/kg in data set [2] (sc, S.C. (subcutaneous)). Also, the 50% effective dose (ED50) in data set [5] is 0.78 mg/kg; in data set [1], 0.00021 mg/kg; in data set [6], 0.0011 mg/kg; in data set [4] it was 1.22 mg/kg.

With `CCS(=O)(=O)c1cc(OC)c(OC)c(C(=O)NCC2CCCN2CC2CC2)c1` (stereo not drawn) [Example 16, N-(1-cyclopropylmethyl 2-pyrrolidinylmethyl) 2,3-dimethoxy 5-ethylsulphonylbenzamide, hydrochloride], the LD50 in data set [2] (I.V. (intravenous)) was in the range of 92.9 to 97.2 mg/kg; in data set [2] (P.O. (oral)) it was 588 to 598 mg/kg; in data set [2] (ip, I.P. (intraperitoneal)) it was 303 to 338 mg/kg; in data set [2] (sc, S.C. (subcutaneous)), 595 to 597 mg/kg. Further, the ED50 in data set [5] stood at 1.34 mg/kg; in data set [6] it was 0.00023 mg/kg; in data set [3], 0.25 mg/kg; in data set [4], 3.2 mg/kg.

Turning to `COc1cc2[nH]nnc2cc1C(=O)NCC1CCCN1CC1=CCCCC1` (stereo not drawn) [Example 22, N-(1-cyclohexenylmethyl 2-pyrrolidinylmethyl) 2-methoxy 4,5-azimido benzamide], the 50% effective dose (ED50) in data set [1] is 0.002 mg/kg.

Take `COc1ccc(S(=O)(=O)N(C)C)cc1C(=O)NCC1CCCN1CC1CC1` (stereo not drawn) [Example 77149, N--(1cyclopropylmethyl 2pyrrolidinylmethyl)-2-methoxy-5-dimethylsulphamoyl benzamide]: in data set [7], the “ED50 (Prior Art Compounds, Results Reported in U.S. Pat No. 4,172,143)” value is 0.04 mg/kg and the “ED50 (oral)” value is 0.04 mg/kg.

In turn, `COc1ccc(S(N)(=O)=O)cc1C(=O)NCC1CCCN1CC1CCCCC1` (stereo not drawn) [Example 77205, N--(1cyclohexylmethyl 2pyrrolidinylmethyl)-2-methoxy-5-sulphamoyl benzamide, reference compound] came in with an ED50 in data set [5] of 19 mg/kg. In addition, in data set [7], the “ED50 (Prior Art Compounds, Results Reported in U.S. Pat No. 4,172,143)” value is 0.014 mg/kg and the “ED50 (oral)” value is 0.014 mg/kg. Besides, in data set [4], the “% antagonism to chewing stereotypes induced by apomorphine” value (shortened to “% antagonism … by apomorphine”) is recorded as 20%.

`COc1ccc(S(N)(=O)=O)cc1C(=O)NCC1CCCN1CC1CC1` (stereo not drawn) [SLC-036, N--(1cyclopropylmethyl 2pyrrolidinylmethyl)-2-methoxy-5-sulphamoyl benzamide, reference compound]: the “% antagonism to chewing stereotypes induced by dexamphetamine” value in data set [5] is on record as 0%. In addition, in data set [7], the “ED50 (Prior Art Compounds, Results Reported in U.S. Pat No. 4,172,143)” value is 0.037 mg/kg and the “ED50 (oral)” value is 0.037 mg/kg. The “% antagonism … by apomorphine” value in data set [4] is given as 0%.

With `CCN1CCCC1CNC(=O)c1cc(S(N)(=O)=O)ccc1OC` (stereo not drawn) [Sulpiride, N-[(1-ethylpyrrolidinyl-2)methyl]-2-methoxy-5 sulphamoyl benzamide, reference compound], the “% potentiation of stereotypes induced by apomorphine” value in data set [8] was found to be 30%. For the same compound, the “% antagonism to chewing stereotypes induced by dexamphetamine” value in data set [5] was found to be 0%. In addition, in data set [3] (at 4 mg/kg), the “% potentiation of biting sterotypes induced by apomorphine” value is reported as 12%. Moreover, the “% antagonism … by apomorphine” value in data set [4] turned out to be 0%.
